# Reference: patent publication US20250034170A1, “SMALL MOLECULE MODULATORS OF GLUCOCEREBROSIDASE ACTIVITY AND USES THEREOF” (Vanqua Bio, Inc., priority 2021, published 2025)
# Molecular target: T1, GCase (Homo sapiens, UniProt P04062)
# T1 construct: endogenous in cells; host or cells: HeLa cells
# T1 sequence (P04062 40-536): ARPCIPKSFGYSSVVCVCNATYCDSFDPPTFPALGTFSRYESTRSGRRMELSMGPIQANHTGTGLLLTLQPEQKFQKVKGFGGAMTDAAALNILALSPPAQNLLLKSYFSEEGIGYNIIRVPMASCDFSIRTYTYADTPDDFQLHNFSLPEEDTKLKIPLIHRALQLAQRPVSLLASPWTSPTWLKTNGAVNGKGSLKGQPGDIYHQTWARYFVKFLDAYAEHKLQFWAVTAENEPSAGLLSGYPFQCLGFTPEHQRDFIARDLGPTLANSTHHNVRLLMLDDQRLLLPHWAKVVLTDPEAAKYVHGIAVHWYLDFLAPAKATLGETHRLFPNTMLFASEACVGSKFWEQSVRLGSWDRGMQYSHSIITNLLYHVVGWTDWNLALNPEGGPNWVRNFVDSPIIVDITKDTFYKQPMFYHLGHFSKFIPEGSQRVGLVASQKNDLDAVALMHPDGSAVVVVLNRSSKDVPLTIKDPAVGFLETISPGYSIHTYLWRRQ
# Experiment: activation of GCase in a live cell PFB assay in HELA cells
# Format: cell-based
# Settings: EC50 given as range classes
# Protocol: Exemplary compounds were evaluated for activation of GCase in a live cell PFB assay in HELA cells (essentially as described in Ysselstein et al., “LRRK2 kinase activity regulates lysosomal glucocerebrosidase in neurons derived from Parkinson's disease patients” Nature Communications (2019) 10:5570). […] EC50 ranges: A: <10 μM; B: >10-50 μM; C: >50-100 μM; D: >100 μM.
row,EC50 [µM],SMILES
1,< 10,COc1nc(C(F)(F)F)ccc1N1CC2(CCN(c3cnc4cnn(CC(F)F)c4n3)CC2)CC1=O [Cmpd 779]
2,< 10,O=C1CC2(CCN(c3cnc4cnn(CC(F)F)c4n3)CC2)CN1c1ccc(C(F)(F)F)nc1OC(F)F [Cmpd 780]
3,< 10,Cc1ccc(N2CC3(CCN(c4cnc5cnn(CC(F)F)c5n4)CC3)CC2=O)c(OC(F)(F)F)n1 [Cmpd 782]
4,> 100,Cc1cnc(N2CCC3(CCN(c4cnc5cnn(CC(F)F)c5n4)CC3)C2)nc1C(F)(F)F [Cmpd 785]
5,< 10,Cc1nc(C(F)(F)F)cnc1N1CCC2(CCN(c3cnc4cnn(CC(F)F)c4n3)CC2)C1 [Cmpd 786]
6,10 to 50,O=C1CC2(CCN(c3cnc4cnn(CC(F)F)c4n3)C2)CCN1c1ccc(C(F)(F)F)nc1 (stereo not shown) [Cmpd 789]
7,< 10,O=C1CCC2(CCN(c3cnc4cnn(CC(F)F)c4n3)C2)CN1c1ccc(C(F)(F)F)nc1 (stereo not shown) [Cmpd 790]
8,50 to 100,O=C1CC2(CCN(c3cnc4cnn(CC(F)F)c4n3)C2)CCN1c1ccc(C(F)(F)F)cn1 (stereo not shown) [Cmpd 791]
9,< 10,O=C1CCC2(CCN(c3cnc4cnn(CC(F)F)c4n3)C2)CN1c1ccc(C(F)(F)F)cn1 (stereo not shown) [Cmpd 792]
10,10 to 50,O=C1CC2(CCN(c3cnc4cnn(CC(F)F)c4n3)C2)CCN1c1cc(C(F)(F)F)ccn1 (stereo not shown) [Cmpd 793]
11,< 10,O=C1CCC2(CCN(c3cnc4cnn(CC(F)F)c4n3)C2)CN1c1cc(C(F)(F)F)ccn1 (stereo not shown) [Cmpd 794]
12,< 10,O=C1CC2(CCN(c3cnc4cnn(CC(F)F)c4n3)C2)CCN1c1cncc(C(F)(F)F)c1 (stereo not shown) [Cmpd 795]
13,< 10,O=C1CCC2(CCN(c3cnc4cnn(CC(F)F)c4n3)C2)CN1c1cncc(C(F)(F)F)c1 (stereo not shown) [Cmpd 796]
14,10 to 50,O=C1CC2(CN1c1ccc(C(F)(F)F)cn1)C1CC2CN(c2cnc3cnn(CC(F)F)c3n2)C1 (stereo not shown) [Cmpd 802]
15,10 to 50,FC(F)Cn1ncc2ncc(N3CCC4(CCN(c5cncc(C(F)(F)F)c5)CC4)CC3)nc21 [Cmpd 808]
16,10 to 50,FC(F)Cn1ncc2ncc(N3CCC4(CCN(c5ccc(C(F)(F)F)cn5)CC4)CC3)nc21 [Cmpd 810]
17,< 10,FC(F)Cn1ncc2ncc(N3CCC4(CCN(c5cc(C(F)(F)F)ccn5)CC4)CC3)nc21 [Cmpd 811]
18,< 10,FC(F)Cn1ncc2ncc(N3CCC4(CCN(c5cncc(C(F)(F)F)n5)CC4)CC3)nc21 [Cmpd 813]

# The remaining lines, values behind:
row,SMILES,EC50 [µM]
1,Cc1ccc(N2CC3(CCN(c4cnc5cnn(CC(F)F)c5n4)CC3)CC2=O)c(OC(F)F)n1 [Cmpd 781],< 10
2,COc1nc(N2CCC3(CCN(c4cnc5cnn(CC(F)F)c5n4)CC3)C2=O)ccc1C(F)(F)F [Cmpd 783],50 to 100
3,COc1ccc(C(F)(F)F)c(N2CCC3(CCN(c4cnc5cnn(CC(F)F)c5n4)CC3)C2=O)n1 [Cmpd 784],< 10
4,COc1nc(C(F)(F)F)ncc1N1CCC2(CCN(c3cnc4cnn(CC(F)F)c4n3)CC2)C1 [Cmpd 787],< 10
5,COc1ncc(N2CCC3(CCN(c4cnc5cnn(CC(F)F)c5n4)CC3)C2)c(C(F)(F)F)n1 [Cmpd 788],10 to 50
6,O=C1N(c2ccc(C(F)(F)F)nc2)CCC12CC1CCC(C2)N1c1cnc2cnn(CC(F)F)c2n1 (stereo not shown) [Cmpd 797],< 10
7,O=C1N(c2ccc(C(F)(F)F)cn2)CCC12CC1CCC(C2)N1c1cnc2cnn(CC(F)F)c2n1 (stereo not shown) [Cmpd 798],10 to 50
8,O=C1N(c2ccc(C(F)(F)F)nc2)CCC12C1CCC2CN(c2cnc3cnn(CC(F)F)c3n2)C1 (stereo not shown) [Cmpd 799],< 10
9,O=C1N(c2ccc(C(F)(F)F)cn2)CCC12C1CCC2CN(c2cnc3cnn(CC(F)F)c3n2)C1 (stereo not shown) [Cmpd 800],< 10
10,O=C1CC2(CN1c1ccc(C(F)(F)F)nc1)C1CC2CN(c2cnc3cnn(CC(F)F)c3n2)C1 (stereo not shown) [Cmpd 801],50 to 100
11,O=C1N(c2cnc3cnn(CC(F)F)c3n2)CCC12CC1CCC(C2)N1c1ccc(C(F)(F)F)nc1 (stereo not shown) [Cmpd 803],< 10
12,O=C1CC2(CN1c1ccc(C(F)(F)F)nc1)C1CCC2CN(c2cnc3cnn(CC(F)F)c3n2)C1 (stereo not shown) [Cmpd 804],10 to 50
13,O=C1CC2(CN1c1cnc(C(F)(F)F)cn1)C1CCC2CN(c2cnc3cnn(CC(F)F)c3n2)C1 (stereo not shown) [Cmpd 805],10 to 50
14,O=C1CC2(CN1c1cncc(C(F)(F)F)n1)C1CCC2CN(c2cnc3cnn(CC(F)F)c3n2)C1 (stereo not shown) [Cmpd 806],10 to 50
15,FC(F)Cn1ncc2ncc(N3CCC4(CCN(c5ccc(C(F)(F)F)nc5)CC4)CC3)nc21 [Cmpd 807],< 10
16,FC(F)Cn1ncc2ncc(N3CCC4(CCN(c5cccc(C(F)(F)F)n5)CC4)CC3)nc21 [Cmpd 809],< 10
17,FC(F)Cn1ncc2ncc(N3CCC4(CCN(c5ccnc(C(F)(F)F)c5)CC4)CC3)nc21 [Cmpd 812],< 10
18,FC(F)Cn1ncc2ncc(N3CCC4(CCN(c5cnc(C(F)(F)F)cn5)CC4)CC3)nc21 [Cmpd 814],< 10

row,SMILES,EC50 [µM]
1,CC1(C)CC2(CCN(c3cnc4cnn(CC(F)F)c4n3)CC2)C(=O)N1c1ccc(C(F)(F)F)nc1 [Cmpd 815],10 to 50
2,CC1(C)N(c2ccc(C(F)(F)F)nc2)C(=O)CC12CCN(c1cnc3cnn(CC(F)F)c3n1)CC2 [Cmpd 816],10 to 50
3,O=C1N(c2ccnc(C(F)(F)F)c2)C(=O)C2(CCN(c3cnc4cnn(CC(F)F)c4n3)CC2)N1Cc1cc(F)cc(F)c1 [Cmpd 817],< 10
4,O=C1N(c2ccc(C(F)(F)F)nc2)C(=O)C2(CCN(c3cnc4cnn(CC(F)F)c4n3)CC2)N1Cc1cc(F)cc(F)c1 [Cmpd 818],< 10
5,O=C1N(c2cnc(C(F)(F)F)nc2)C(=O)C2(CCN(c3cnc4cnn(CC(F)F)c4n3)CC2)N1Cc1cc(F)cc(F)c1 [Cmpd 819],< 10
6,O=C1N(c2cncc(C(F)(F)F)n2)C(=O)C2(CCN(c3cnc4cnn(CC(F)F)c4n3)CC2)N1Cc1cc(F)cc(F)c1 [Cmpd 820],< 10
7,O=C1N(c2cnc(C(F)(F)F)cn2)C(=O)C2(CCN(c3cnc4cnn(CC(F)F)c4n3)CC2)N1Cc1cc(F)cc(F)c1 [Cmpd 821],< 10
8,CCOCCN1C(=O)N(c2cc(C(F)(F)F)ccn2)C(=O)C12CCN(c1cnc3cnn(CC(F)F)c3n1)CC2 [Cmpd 822],> 100
9,FC(F)(F)c1ncc(N2CCC3(CCN(c4cncc(-c5nncs5)n4)CC3)C2)cn1 [Cmpd 823],10 to 50
10,FC(F)(F)c1cnc(N2CCC3(CCN(c4cncc(-c5nncs5)n4)CC3)C2)cn1 [Cmpd 824],10 to 50
11,FC(F)(F)c1ccc(N2CCC3(CCN(c4cncc(-c5nncs5)n4)CC3)C2)nn1 [Cmpd 825],10 to 50
12,FC(F)Cn1ncc2cnc(N3CCC4(CCN(c5ccc(C(F)(F)F)nc5)C4)CC3)nc21 [Cmpd 827],10 to 50
13,O=C1CC2(CCN(c3ncc4cnn(CC(F)F)c4n3)CC2)CN1c1ccc(C(F)(F)F)nc1 [Cmpd 828],10 to 50
14,Cc1nn(CC(F)F)c2nc(N3CCC4(CCN(c5cnc(C(F)(F)F)nc5)C4)CC3)cnc12 [Cmpd 829],< 10
15,Cc1nn(CC(F)F)c2nc(N3CCC4(CCN(c5ccc(C(F)(F)F)nc5)C4)CC3)ncc12 [Cmpd 830],< 10
16,Cc1nn(CC(F)F)c2nc(N3CCC4(CC3)CCN(c3ccc(C(F)(F)F)nc3)C4=O)ncc12 [Cmpd 831],10 to 50
17,Cc1nn(CC(F)F)c2nc(N3CCC4(CC3)CC(=O)N(c3ccc(C(F)(F)F)nc3)C4)ncc12 [Cmpd 832],< 10
18,COc1nn(CC(F)F)c2nc(N3CCC4(CCN(c5ccc(C(F)(F)F)nc5)C4)CC3)cnc12 [Cmpd 833],< 10

# Same assay, conditions: activation of GCase, EC50 ranges
row,EC50 [µM],SMILES
1,< 10,COc1nc2cnn(CC(F)F)c2nc1N1CCC2(CC1)CCN(c1ccc(C(F)(F)F)nc1)C2=O [Cmpd 834]
